According to patent US8409560B2, “Solid dispersion formulations and methods of use thereof” (Zalicus Pharmaceuticals Ltd., priority 2011, dated 2013):

Experiments:
[1] = Fed-fasted pharmacokinetics and relative oral bioavailability of compound 1 HCl salt, micronized formulation (previously determined); conditions: human, in vivo
Description: The fed-fasted pharmacokinetic data were collected using a “normal fat” meal consisting of toast with 1 pat of butter, a banana, 2% milk, apple juice, and Honey Nut Cheerios®, where the meal has about 501 calories with 99 calories from fat, 346 calories from carbohydrates, and 56 calories from protein; and using a “high fat” meal consisting of 2 eggs fried in butter, 2 strips of bacon, 2 slices of toast with butter, 4 ounces of hash brown potatoes and 8 ounces of whole milk, where the meal has about 1,000 calories with 500-600 calories from fat, 250 calories from carbohydrates, and 150 calories from protein.
The relative oral bioavailability of compound 1 (HCl salt) has been previously determined in various fed and fasted states in a micronized formulation. This micronized formulation included the following for a 100 mg dose in a #1 HPMC (white opaque) capsule: compound 1 HCl micronized (100.00 mg), Lactose Fast Flo® Fast Flo® composed of a spray-dried mixture of crystalline and amorphous lactose monohydrate (184.80 mg); sodium starch glycolate (19.20 mg); polysorbate 80 (14.40 mg); purified water (used as the granulating fluid and was removed during processing) (QS); and magnesium stearate (1.60 mg), where the resultant fill weight was 320.00 mg. […]

[2] = Supersaturation dissolution kinetics of hot melt extrusion formulations; type: physicochemical; conditions: processing conditions na
Experimental: Supersaturation dissolution kinetics provides valuable information regarding the performance of different matrix polymers in combination with an active agent. In particular, such studies could provide insight on which formulations could provide enhanced bioavailability. Accordingly, dissolution studies were conducted on the following three HME formulations: Kollidon® VA 64 (Copovidone), HPMCAS-MF (Hypromellose Acetate Succinate), and Kollidon® K30 (Povidone, PVP).
Briefly, the target concentration of the dissolution sample solution was 1.1 mg/mL, or ten times the estimated sink dissolution sample solution concentration produced by a 100 mg dose when dissolved in 900 mL of dissolution media. Triplicate preparations of about 10 mg of extrudate (2 mg of compound 1 in the three HME formulations) were transferred into separate micro-centrifuge tubes. About 1.8 mL of dissolution media was preheated to 37° C. and added to each tube, where the tube was then placed into an incubator shaker at 37° C. and 250 rpm. Samples were centrifuged at 13,000 rpm for one minute, and 25 μL aliquots of the clear supernatant were transferred into HPLC vials and diluted with 1.0 mL of HPLC mobile phase (30%/70% of pH 6.6 buffer/acetonitrile) at 10′ (minutes), 20′, 40′, 1 hr (hour), 1.5 hrs, 2 hrs, 4 hrs, and 24 hrs. An isocratic HPLC method was applied for quantitation against a five point calibration curve in the range of 5.5-220 μg/mL (C18, 5 μm, 4.6×150 mm column, and UV 216 nm detection). The HPLC sample solution target concentration was 27.1 μg/mL.

Tmax [1]: < 2 h | AUC0-4 hr (dissolution) [2]: 8 µg·h/mL | Tmax (dissolution) [2]: 2 h | Cmax (dissolution) ([2]; 37° C.): 2.645 µg/mL
Structure (SMILES): O=C(CC(c1ccccc1)c1ccccc1)N1CCN(C(c2ccccc2)c2ccccc2)CC1 [Compound 1, 1-(4-benzhydrylpiperazin-1-yl)-3,3-diphenylpropan-1-one]
